What was measured:
cholesterol absorption [1] = details: po, 0.03 % of diet, 336 h
Protocol: Inhibition of cholesterol absorption was determined by feeding male Sprague-Dawley rats, weighing 150-170 g., a 1% cholesterol:0.5% cholic acid diet for 2 weeks. The diet also contained compounds being tested at a dose of 0.03% of the diet. Control rats were fed the same diet without any compound. At the end of the test the rats were sacrificed by decapitation. […] Livers are removed, a 0.4 g sample is taken from the center of the large lobe, and the sample is subjected to saponification using 25% saturated potassium hydroxide in ethanol. The resulting neutral sterols are extracted with petroleum ether and extract analyzed for cholesterol. The effectiveness of the compound in inhibiting cholesterol absorption is measured by the lowering of either serum cholesterol or liver cholesterol relative the values for control rats.

[2] = biological target: T1, fatty acyl CoA:cholesterol acyl transferase (ACAT) (Rattus norvegicus, UniProt O70536); experiment: Inhibition of ACAT in rat adrenal microsomal supernatant (14C-oleoyl CoA, cholesteryl ester counted); format: biochemical; parameters: dose or concentration left out as unconfirmed; details: vs control without compound
T1 construct: The supernatant, containing the microsomal fraction, served as the source of the cholesterol-esterifying enzyme; from tissue; host or cells: rat adrenals (1000 x g supernatant containing the microsomal fraction)
T1 sequence (O70536 1-545): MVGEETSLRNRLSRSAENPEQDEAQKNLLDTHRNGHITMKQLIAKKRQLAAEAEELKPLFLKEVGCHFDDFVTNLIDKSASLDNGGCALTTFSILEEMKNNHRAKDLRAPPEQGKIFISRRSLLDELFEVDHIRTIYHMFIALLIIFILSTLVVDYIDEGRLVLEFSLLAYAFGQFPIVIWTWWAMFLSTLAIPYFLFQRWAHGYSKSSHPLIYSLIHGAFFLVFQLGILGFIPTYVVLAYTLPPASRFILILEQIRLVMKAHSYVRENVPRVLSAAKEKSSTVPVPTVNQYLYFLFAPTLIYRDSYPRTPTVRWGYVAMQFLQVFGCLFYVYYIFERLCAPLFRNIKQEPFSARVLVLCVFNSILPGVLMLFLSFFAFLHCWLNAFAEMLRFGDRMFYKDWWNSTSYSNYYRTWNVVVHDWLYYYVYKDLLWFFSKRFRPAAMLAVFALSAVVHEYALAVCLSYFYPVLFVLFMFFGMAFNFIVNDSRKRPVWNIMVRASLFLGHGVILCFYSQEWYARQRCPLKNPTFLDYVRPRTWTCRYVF
Protocol: The compounds of the present invention were assayed for two types of biological activity related to their potential use as antiatherosclerotic agents. Compounds were tested in vitro for the ability to inhibit the enzyme fatty acyl CoA:cholesterol acyl transferase (ACAT) and in vivo for serum hypolipidemic activity as measured by their ability to inhibit lipid absorption in rats. The compounds were tested for their ability to inhibit ACAT according to the following procedure:
Rat adrenals were homogenized in 0.2 M monobasic potassium phosphate buffer, pH 7.4, and centrifuged at 1000 times gravity for 15 minutes at 5° C. The supernatant, containing the microsomal fraction, served as the source of the cholesterol-esterifying enzyme, fatty acyl CoA:cholesterol acyl transferase (ACAT). A mixture comprising 50 parts of adrenal supernatant, 10 parts of albumin (BSA) (50 mg./ml.), 3 parts of test compound (final concentration […].) and 500 parts of buffer was preincubated at 37° C. for 10 minutes. After treatment with 20 parts of oleoyl CoA(^14 C-[…]) the mixture was incubated at 37° C. for 10 minutes. A control mixture, omitting the test compound, was prepared and treated in the same manner. The lipids from the incubation mixture were extracted into an organic solvent and separated by thin-layer chromatography. The cholesteryl ester fraction was counted in a scintillation counter. This procedure is a modification of that described by Hashimoto, et al., Life Scie., 12 (Part II), 1-12 (1973).

cholesterol absorption [3] = experiment: Inhibition of cholesterol absorption in cholesterol/cholic acid fed rats given [4-14C] cholesterol by gavage (fecal 14C sterols); format: in vivo, male Sprague-Dawley rats; parameters: key: Active: A compound is considered active in inhibiting cholesterol absorption if it meets at least the first two criteria; details: 0.01% to 0.1% of the diet for 2 weeks; [4-14C] cholesterol plus 2 mg. test compound by gavage after 9 days; feces collected 5 days
Protocol: Inhibition of cholesterol absorption also was determined by feeding male Sprague-Dawley rats, weighing 150-170 g., a 1% cholesterol:0.5% cholic acid diet for 2 weeks. The diet also contained compounds being tested at doses of between 0.01% and 0.1% of the diet. After the rats had been on the test diet for 9 days each rat is given by gavage a sonicated mixture of [4-^14 C] cholesterol (6μCi), 0.2 ml. triolein, 10 mg. cholic acid, 20 mg. cholesterol and 2 mg. of test compound in 0.8 ml. of 10% non-fat dry milk. Feces were collected for each 24 hour period for the remaining 5 days during which the rats were maintained on the 1% cholesterol:0.5% cholic acid plus test compound diet. Fecal ^14 C-neutral sterols were extracted with petroleum ether from saponified feces by the method of Grundy, S. M., et al., J. Lipid Res., 6, 397 (1965) and counted in a scintillation counter. Acidic sterols (bile acids) were extracted by acidifying the saponified feces and extracting in chloroform:methanol (2:1) and counting the chloroform phase in a scintillation counter. Total extraction of radioactivity (98-100%) from saponified feces is realized by this procedure.
Radioactivity in liver and adrenals were determined by saponification and extraction into petroleum ether and counting by scintillation techniques. Total cholesterol in liver and adrenals was determined by the cholorimetric melthod of Zlatkis, A., et al., J. Lab. Clin. Med., 41, 486 (1953) on saponified-organic solvent extracted tissue prepared by the method of Trinder, P., Analyst, 77, 321 (1952). Serum cholesterol and triglycerides were assayed enzymaticaly by the method of Allain, C. C., et al., Clin. Chem., 20, 470 (1974) on a Centrifichem 400 Analyzer. ^14 C-Cholesterol in serum was determined by direct scintillation counting.
The effect of test compounds on cholesterol absorption was determined by:
1. increase in excreted ^14 C-neutral sterol
2. decrease in excreted ^14 C-acidic sterol
3. decrease in ^14 C-cholesterol or ^14 C-cholesteryl ester in the liver
4. decrease in ^14 C-cholesterol or ^14 C-cholesteryl ester in the serum. […]

Question: How did the “Result (inhibition of cholesterol absorption: lowering of either serum cholesterol or liver cholesterol relative to control rats)” value (cholesterol absorption [1]) turn out when `CCCCCCCCN(CCCCCCCC)C(=O)Nc1ccc(C)cc1C` [1,1-Di-(n-octyl)-3-(2,4-dimethylphenyl)urea] was run?
Answer: The value was “Active”.

Question: And the “% Inhibition” value [2]?
Answer: The value was 88.6%.

Question: Which “Result (inhibition of cholesterol absorption: lowering of either serum cholesterol or liver cholesterol relative to control rats)” value (cholesterol absorption [1]) does the source give for `CCCCCCN(CCCCCC)C(=O)Nc1ccc(C)cc1C` [1,1-Di-(n-hexyl)-3-(2,4-dimethylphenyl)urea] here?
Answer: Its value is “Active”.

Question: What about the “Result (inhibition of cholesterol absorption: increase in excreted 14C-neutral sterol and decrease in excreted 14C-acidic sterol)” value (cholesterol absorption [3]) of the same compound?
Answer: The value was “Active”.

Question: And the “% Inhibition” value [2]?
Answer: The value was 95.1%.

Question: For `CCCCN(CCCC)C(=O)Nc1ccc(C)cc1C` [1,1-Di-(n-butyl)-3-(2,4-dimethylphenyl)urea], which “Result (inhibition of cholesterol absorption: lowering of either serum cholesterol or liver cholesterol relative to control rats)” value (cholesterol absorption [1]) is on record?
Answer: Its value is “Active”.

Question: What about the “Result (inhibition of cholesterol absorption: increase in excreted 14C-neutral sterol and decrease in excreted 14C-acidic sterol)” value (cholesterol absorption [3]) of the same compound?
Answer: The value was “Active”.

Question: And the “% Inhibition” value [2]?
Answer: The value was 81.1%.

Question: Which results are given for `Cc1ccc(NC(=O)N(CCC(C)CC(C)(C)C)CCC(C)CC(C)(C)C)c(C)c1` (stereo not drawn) [1,1-di-(3,5,5-trimethylhexyl)-3-(2,4-dimethylphenyl)urea]?
Answer: Result (inhibition of cholesterol absorption: lowering of either serum cholesterol or liver cholesterol relative to control rats) (cholesterol absorption [1]): Active; % Inhibition [2]: 90.4%

Question: With `CCCCN(CCCC)C(=O)Nc1ccccc1C` [1,1-di-(n-butyl)-3-(2-methylphenyl)urea, 1,1-Di-(n-butyl)-3-(2-methylphenyl)urea] as the compound, how does the “Result (inhibition of cholesterol absorption: lowering of either serum cholesterol or liver cholesterol relative to control rats)” value (cholesterol absorption [1]) read?
Answer: The value was “Active”.

Question: What about the “% Inhibition” value [2] of the same compound?
Answer: The value was 61.8%.

Question: `CCCCCCCCCCN(CCCCCCCCCC)C(=O)Nc1ccc(C)cc1C` [1,1-Di-(n-decyl)-3-(2,4-dimethylphenyl)urea] was tested. Which “Result (inhibition of cholesterol absorption: lowering of either serum cholesterol or liver cholesterol relative to control rats)” value (cholesterol absorption [1]) did it give?
Answer: The value was “Active”.

Question: And the “% Inhibition” value [2]?
Answer: The value was 64.0%.

Question: What does the source list for `Cc1ccc(NC(=O)N(CCC(C)C)CCC(C)C)c(C)c1` [1,1-Di-(n-isopentyl)-3-(2,4-dimethylphenyl)urea]?
Answer: Result (inhibition of cholesterol absorption: lowering of either serum cholesterol or liver cholesterol relative to control rats) (cholesterol absorption [1]): Active; % Inhibition [2]: 88.7%

Question: `CCCCCN(CCCCC)C(=O)Nc1ccc(C)cc1C` [1,1-Di-(n-pentyl)-3-(2,4-dimethylphenyl)urea] was tested. Which “Result (inhibition of cholesterol absorption: lowering of either serum cholesterol or liver cholesterol relative to control rats)” value (cholesterol absorption [1]) did it give?
Answer: The value was “Active”.

Question: What about the “Result (inhibition of cholesterol absorption: increase in excreted 14C-neutral sterol and decrease in excreted 14C-acidic sterol)” value (cholesterol absorption [3]) of the same compound?
Answer: Its value is “Active”.

Question: And the “% Inhibition” value [2]?
Answer: The value was 90.3%.

Question: With `CCCCN(CCCC)C(=O)Nc1cccc(Cl)c1C` [1,1-Di-(n-butyl)-3-(3-chloro-2-methylphenyl)urea] as the compound, how does the “Result (inhibition of cholesterol absorption: lowering of either serum cholesterol or liver cholesterol relative to control rats)” value (cholesterol absorption [1]) read?
Answer: Its value is “Active”.

Question: What about the “% Inhibition” value [2] of the same compound?
Answer: Its value is 80.2%.
